Measured values: patent publication US20070099250A1, “Methods for treating proliferative diseases and for monitoring the effectiveness of treatment of proliferative diseases” (priority 2003, published 2007)

Tests used:
[1] = tested on: MAPK pathway in HCT116 cells; experiment: Inhibition of MAPK pathway in HCT116 cells; format: cell-based, human
Protocol: (§1) The treatment of HCT116 cells with BPMI leads to the inhibition of OP18 phosphorylation at Ser^25 residue (data not shown). […] Additional data also provides that BPMI inhibits OP18 Ser^25 phosphorylation with an IC50 of approximately 5 μM. Thus, it appears that both MAPK and OP18 Ser^25 phosphorylation are inhibited at a similar level for a given dose of a raf inhibitor.

[2] = tested on: OP18 Ser25 phosphorylation; experiment: Western blot analysis of Raf-inhibitor-treated HCT116 cell lysates, phospho-Ser25 specific OP18 antibody; format: cell-based, human
Protocol: HCT1 16 cells are prepared. as in Example 1 above and treated with a Raf inhibitor (BPMI) for 1.5 hr. Cells are lysed in Incomplete Laemmli buffer (0.1 IM Tris.Cl pH 7.0, 4% SDS, 10% glycerol), and passed through a syringe fitted with 25 gauge needle to break apart genomic DNA. The lysate is boiled for 5 minutes, and loaded onto 10% SDS-PAGE gel. Proteins in the SDS-PAGE gel are then transferred to nitrocellulose membrane. The membrane is blocked with 5% milk for 1 hr, and incubated with the an antibody specific for Ser^25 phosphorylated OP18 for an additional hour. The phosphor-Ser^25 specific OP18 antibody is raised in rabbit using standard techniques and purification known in the art. The amino acid sequence used to generate phosphor-Ser^25 specific OP18 antibody is ELILpSPRSKESVPEFP (SEQ ID NO:_). The blot is washed three times with TBST 15 minutes each, and then incubated with anti-rabbit HRP-conjugated antibody for 1 hr. The blot is washed three times with TBST 15 minutes each, and the antibody bound proteins are labeled using SuperSignal West Dura Extended Duration substrate (Piece Biotechnologies, Rockford, Ill.). The phosphorylated OP18 proteins are detected via exposing the blot through a film (Eastman Kodak, Rochester, N.Y.).
as §1

[3] = tested on: Oncogene EMS1; experiment: Inverse labeling-MS analysis of DU145 tumor tissue lysates, mouse tumor xenograft, in vivo BPMI; conditions: 1 hour BPMI treatment, 200 mg/kg p.o.
Protocol: (§2) The phosphoproteome mapping method is further tested/applied to an in vivo study of the Raf inhibitor, BPMI (one-hour treatment, 200 mg/kg p.o.), in the analysis of tissue lysates of mouse tumor xenograft.
(§3) The methyl esterification/IMAC procedure is successful in removing the blood contamination from the tissue samples. […] Additional changes in phosphorylation are also detected which includes oncogene EMS1, mouse fetuin and Epithelial-cadherin (see Table 2).

[4] = tested on: Mouse fetuin; experiment: as above; conditions: 1 hour BPMI treatment, 200 mg/kg p.o., phosphopeptide VoxMHTQCHSTPDpSAEDVR
Protocol: as §2, §3

[5] = tested on: Oncoprotein 18; experiment: as above; conditions: for Change (treated/control) in phosphorylation / Change in phosphorylation, % down: DU145 tumor tissue, 1 hour BPMI treatment, 200 mg/kg p.o.
Protocol: as §2, §3

[6] = tested on: Epithelial-cadherin (mouse/human); experiment: as above; conditions: 1 hour BPMI treatment, 200 mg/kg p.o., phosphopeptide MRDWVIPPIpSCPENEK
Protocol: as §2, §3

[7] = tested on: Oncogene EMS1; experiment: Inverse labeling-MS phosphopeptide analysis of HCT116 cell lysate treated with BPMI; format: cell-based, human; conditions: HCT116 cells, 20 μM BPMI, 1.5 hours
Protocol: (§4) Human colorectal cell line HCT116 cells are grown in 6-well plates. Prior to harvesting, the cells are treated with 20 μM of the Raf inhibitor BPMI and DMSO control for 1.5 hours, respectively. Cells are then rinsed with PBS, and lysed for 5 minutes at 4° C. in Doriano lysis buffer with 100 μg/mL Perfabloc/2 μg/mL aprotinin/2 μg/mL leupeptin/1 mM NaVO4/10 mM NaF. The supernatant of the lysates are collected after centrifugation at 3,000 rpm for 5 minutes. The protein concentration is determined using Bio-Rad reagent, and the lysates are frozen at −80° C. prior to fkrther processing and analysis.
(§5) One μL of RNase A (20 mg/mL, Sigma, St Louis, Mo.) and 1 μL of RNase T1 (10 units/mL, Invitrogen, Carlsbad, Calif.) are added to each 1 mL of lysates (total 3 mg of HCT116-DMSO control and 3 mg of HCT116-BPMI, respectively), and incubated at 37° C. for half an hour to degrade RNAs. Proteins are denatured using 6 M guanidine HCl, followed by reduction with 20 mM 1,4-dithio-DL-threitol (DTT) at 58° C. for 40 minutes and alkylation with 40 mM iodoacetamide at room temperature for 30 minutes in the dark. Each protein solution is transferred to a Slide-A-Lyzer (10,000 MW cutoff, Pierce, Rockford, IL) dialysis cassette and dialyzed against 2 to 0 M urea/50 mM ammonium bicarbonate to remove small molecule impurities and buffer exchange to 50 mM ammonium bicarbonate. Proteolysis is carried out using modified, sequencing grade trypsin (Promega, Madison, Wiss.) at a 1:200 trypsin-to-protein ratio (wt:wt) in 50 mM ammonium bicarbonate at 37° C. overnight.
(§6) The peptide digests are filtered through Centricon Filters (10,000 MW cutoff, Millipore, Bedford, Mass.) to remove large molecule impurities including detergents. Flow-through (peptides) is collected. Solvent and ammonium bicarbonate are subsequently removed by SpeedVac drying.
(§7) d0- or d3-methanolic HCl (2M) (methyl esterification reagent) is prepared by adding 160 μL of acetyl chloride to 1 niL of anhydrous d0-methyl alcohol or d3-methyl d-alcohol drop wise while stirring. After 10 minutes, 1 mL of the methyl esterification reagent is added to 1.5 mg of lyophilized peptide mixture. The reaction is performed in parallel to two identical aliquots for every sample, one using d0-reagent and one using d3-reagent, respectively. The reaction is allowed to proceed at room temperature for 30 minutes. The excess reagents are removed by SpeedVac drying. Subsequently the peptide mixtures are reconstituted with water. The inverse labeling is achieved by mixing d0-control with d3-treated (BPMI) and d3-control with d0-treated.
(§8) Enrichment of phosphopeptides is performed on a 2.1×30 mm IMAC column (POROS 20 MC, Applied Biosystems, Foster City, Calif.). Briefly, the column is washed with water, 100 mM EDTA in 1 M NaCl, followed by water and 1% acetic acid. The column is then activated with 100 mM FeCl3. […] of the inversely labeled methyl esterified peptide mixture (500 μg each form of d0 and d3) is dissolved in 1% acetic acid in 50% acetonitrile/water, and loaded onto iron-activated IMAC column. The unbound peptides are removed by washing with 1% acetic acid in 50% acetonitrile/water. The bound phosphopeptides are eluted with 2% ammonium hydroxide in 50% acetonitrile/water (pH approximately 9 to 10). Acetic acid is added to neutralize the eluent prior to SpeedVac drying. The phosphopeptide mixture is reconstituted with 0.1% formic acid and analyzed using capillary LC/MS, as described below.
(§9) An Ultimate capillary/nano HPLC system (LC Packings, San Francisco, Calif.) with a Swichos micro column-switching module (LC Packings, San Francisco, Calif.) is used for analysis. Separation is carried out on a 0.18×150 mm capillary column, packed with 3 μm C18 stationary phase of 300-Å pore size (PepMap, LC Packings, San Francisco, Calif.), operating at a flow rate of 2 μL/min. Mobile phase A consists of 0.1% (v/v) formic acid in water and mobile phase B of 0.1% (v/v) formic acid in acetonitrile. […]

[8] = tested on: Oncoprotein 18; experiment: as above; format: cell-based, human; conditions: for Change (treated/control) in phosphorylation / Change in phosphorylation, % down: HCT116 cells, 20 μM BPMI, 1.5 hours
Protocol: as §4, §5, §6, §7, §8, §9

[9] = tested on: Heat-shock 110 kD protein; experiment: as above; format: cell-based, human; conditions: HCT116 cells, 20 μM BPMI, 1.5 hours; phosphopeptide IEpSPKLER
Protocol: as §4, §5, §6, §7, §8, §9

[10] = phosphopeptide LPS*pSPVYEDAASFK
[11] = phosphopeptide T*QpTPPVpSPAPQPTEER

SMILES: CC(C)(C)c1ccc(Nc2ncc(Cc3ccncc3)c3ccccc23)cc1 [BPMI, 1-(4-t-butylanilino)-4-[(pyridin-4-yl)-methyl]-isoguinoline]
- IC50 [1]: 5.3 µM
- OP18 phosphorylation at Ser25 residue, Western blot ([2]; HCT116 cells, 1.5 hr treatment (data not shown)): inhibition
- Phosphorylation seen at Ser25 residue of the OP18 protein, Western blot ([2]; HCT116 cells, at 10 μM): almost no phosphorylation
- IC50 ([2]; additional data, read-out: IC50 for inhibition of OP18 Ser25 phosphorylation): ~5 µM
- Change (treated/control) in phosphorylation [3, 10]: 0.7
- Change in phosphorylation, % down [3, 10]: (30% down)
- Change (treated/control) in phosphorylation [3, 11]: 0.6
- Change in phosphorylation, % down [3, 11]: (40% down)
- Change (treated/control) in phosphorylation [4]: 0.6
- Change in phosphorylation, % down [4]: (40% down)
- Change (treated/control) in phosphorylation ([5]; phosphopeptide ASGQAFELILpSPR): 0.4
- Change in phosphorylation, % down ([5]; phosphopeptide ASGQAFELILpSPR): (60% down)
- Change (treated/control) in phosphorylation ([5]; phosphopeptide SKESVPEFPLpSPPK): 0.8
- Change in phosphorylation, % down ([5]; phosphopeptide SKESVPEFPLpSPPK): (20% down)
- OP18 Ser25 phosphorylation in vivo (FIG. 2B) ([5]; tumor tissue DU145, methyl esterification/IMAC): down-regulation
- Change (treated/control) in phosphorylation [6]: 0.5
- Change in phosphorylation, % down [6]: (50% down)
- Change (treated/control) in phosphorylation [7, 10]: 0.8
- Change in phosphorylation, % down [7, 10]: (20% down)
- Change (treated/control) in phosphorylation [7, 11]: 0.7
- Change in phosphorylation, % down [7, 11]: (30% down)
- Op18 Ser25 phosphorylation upon BPMI treatment (FIG. 1) ([8]; HCT116 cell lysate, inverse labeling-MS): Down-regulation
- Change (treated/control) in phosphorylation ([8]; phosphopeptide ASGQAFELILpSPR): 0.4
- Change in phosphorylation, % down ([8]; phosphopeptide ASGQAFELILpSPR): (60% down)
- Change (treated/control) in phosphorylation ([8]; phosphopeptide SKESVPEFPLpSPPK): 0.6
- Change in phosphorylation, % down ([8]; phosphopeptide SKESVPEFPLpSPPK): (40% down)
- Change (treated/control) in phosphorylation [9]: 0.7
- Change in phosphorylation, % down [9]: (30% down)
